Test results published in patent US8765773B2, “Substituted hydroxamic acids and uses thereof” (Millennium Pharmaceuticals, Inc., priority 2010, dated 2014).

Target: T1, purified human HDAC6 (Homo sapiens, UniProt Q9UBN7)
T1 construct: purchased BPS Bioscience 5006
T1 sequence (Q9UBN7 1-1215): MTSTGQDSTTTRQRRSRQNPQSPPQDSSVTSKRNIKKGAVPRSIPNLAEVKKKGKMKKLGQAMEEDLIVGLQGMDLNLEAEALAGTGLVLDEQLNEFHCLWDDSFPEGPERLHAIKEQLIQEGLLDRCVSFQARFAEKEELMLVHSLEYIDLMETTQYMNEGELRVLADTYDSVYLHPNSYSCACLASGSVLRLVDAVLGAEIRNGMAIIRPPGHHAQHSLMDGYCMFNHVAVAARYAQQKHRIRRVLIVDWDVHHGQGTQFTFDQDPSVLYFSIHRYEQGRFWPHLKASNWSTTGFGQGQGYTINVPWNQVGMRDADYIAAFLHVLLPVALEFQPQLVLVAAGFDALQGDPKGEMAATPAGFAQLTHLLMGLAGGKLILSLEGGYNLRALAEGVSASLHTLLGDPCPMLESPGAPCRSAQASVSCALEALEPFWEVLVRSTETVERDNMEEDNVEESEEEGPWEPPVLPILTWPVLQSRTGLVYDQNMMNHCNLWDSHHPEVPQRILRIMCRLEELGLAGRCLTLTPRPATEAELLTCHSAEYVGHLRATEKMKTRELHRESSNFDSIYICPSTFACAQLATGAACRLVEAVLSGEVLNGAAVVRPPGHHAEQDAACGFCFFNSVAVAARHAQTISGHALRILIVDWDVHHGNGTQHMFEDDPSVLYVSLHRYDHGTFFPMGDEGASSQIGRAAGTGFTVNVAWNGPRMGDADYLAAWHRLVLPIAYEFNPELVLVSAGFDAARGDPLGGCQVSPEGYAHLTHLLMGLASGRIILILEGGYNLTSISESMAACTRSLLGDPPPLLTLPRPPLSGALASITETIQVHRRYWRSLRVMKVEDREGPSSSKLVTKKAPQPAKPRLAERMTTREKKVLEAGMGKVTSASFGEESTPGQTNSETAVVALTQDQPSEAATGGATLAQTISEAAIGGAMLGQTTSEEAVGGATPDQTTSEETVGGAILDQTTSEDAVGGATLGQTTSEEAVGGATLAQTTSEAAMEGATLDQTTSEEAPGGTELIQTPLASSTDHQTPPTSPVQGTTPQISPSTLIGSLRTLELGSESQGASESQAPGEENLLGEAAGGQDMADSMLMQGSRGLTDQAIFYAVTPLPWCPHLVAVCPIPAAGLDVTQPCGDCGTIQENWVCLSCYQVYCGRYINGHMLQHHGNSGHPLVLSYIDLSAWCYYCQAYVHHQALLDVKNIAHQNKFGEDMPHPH
Experiment: HDAC6 Enzyme Assay
Type: biochemical
Conditions: compound concentration 0.37 μM, read-out: Percent Inhibition
Procedure, shortened: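 Purified human HDAC6 incubated 1 h at 30° C with Ac-Arg-Gly-Lys(Ac)-AMC peptide plus compound or DMSO; stopped with trichostatin A. Deacetylated product trypsin-digested, released AMC read by fluorescence (Ex 340/Em 460 nm). Percent inhibition at one concentration or IC50 from curves relative to DMSO controls.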

| SMILES | inhibition at 0.37 µM |
| --- | --- |
| O=C(NO)c1ccc2ncn(Cc3cccc(-c4ccc(F)cc4)c3)c(=O)c2c1 [Compound I-181, 3-[(4′-fluorobiphenyl-3-yl)methyl]-N-hydroxy-4-oxo-3,4-dihydroquinazoline-6-carboxamide] | 92.7% |
| CC(C)C(=O)Nc1cccc(Cn2ccc3ccc(C(=O)NO)cc3c2=O)c1 [Compound I-174, N-hydroxy-2-[3-(isobutyrylamino)benzyl]-1-oxo-1,2-dihydroisoquinoline-7-carboxamide] | 98.8% |
| Cc1ccccc1Cc1nc2cc(C(=O)NO)ccc2c(=O)n1Cc1ccc(C(F)(F)F)cc1 [Compound I-35, N-hydroxy-2-(2-methylbenzyl)-4-oxo-3-[4-(trifluoromethyl)benzyl]-3,4-dihydroquinazoline-7-carboxamide] | 66% |
| O=C(NO)c1ccc2ncn(Cc3cccc(-c4cccc(C(=O)NC5CC5)c4)c3)c(=O)c2c1 [Compound I-126, 3-({3′-[(cyclopropylamino)carbonyl]biphenyl-3-yl}methyl)-N-hydroxy-4-oxo-3,4-dihydroquinazoline-6-carboxamide] | 95.6% |
| O=C(NO)c1ccc2ccn(-c3ccccc3)c(=O)c2c1 [Compound I-154, N-hydroxy-1-oxo-2-phenyl-1,2-dihydroisoquinoline-7-carboxamide] | 93.9% |
| O=C(NO)c1ccc2ncn(Cc3cccc(-c4cccc(C(F)(F)F)c4)c3)c(=O)c2c1 [Compound I-46, N-hydroxy-4-oxo-3-{[3′-(trifluoromethyl)biphenyl-3-yl]methyl}-3,4-dihydroquinazoline-6-carboxamide] | 94.4% |

Continued, values first:

| inhibition at 0.37 µM | SMILES |
| --- | --- |
| 42.1% | O=C(NO)c1ccc2ncn(CCc3cccc(-c4ccccc4C(F)(F)F)c3)c(=O)c2c1 [Compound I-325, N-hydroxy-4-oxo-3-{2-[2′-(trifluoromethyl)biphenyl-3-yl]ethyl}-3,4-dihydroquinazoline-6-carboxamide] |
| 29.5% | CNCc1cn(Cc2ccccc2)c(=O)c2cc(C(=O)NO)ccc12 [Compound I-418, 2-benzyl-N-hydroxy-4-[(methylamino)methyl]-1-oxo-1,2-dihydroisoquinoline-7-carboxamide] |
| 93.3% | COc1ccc(-c2cccc(CCn3cnc4ccc(C(=O)NO)cc4c3=O)c2)cc1 [Compound I-303, N-hydroxy-3-[2-(4′-methoxybiphenyl-3-yl)ethyl]-4-oxo-3,4-dihydroquinazoline-6-carboxamide] |
| 93.1% | O=C(NO)c1ccc2ccn(CCc3ccccn3)c(=O)c2c1 [Compound I-344, N-hydroxy-1-oxo-2-(2-pyridin-2-ylethyl)-1,2-dihydroisoquinoline-7-carboxamide] |
| 85.1% | O=C(NO)c1ccc2c(=O)[nH]c(Cc3ccccc3F)nc2c1 [Compound I-411, 2-(2-fluorobenzyl)-N-hydroxy-4-oxo-3,4-dihydroquinazoline-7-carboxamide] |
| 73.2% | O=C(NO)c1ccc2ncn(CCc3cccc(-c4c(Cl)cccc4Cl)c3)c(=O)c2c1 [Compound I-313, 3-[2-(2′,6′-dichlorobiphenyl-3-yl)ethyl]-N-hydroxy-4-oxo-3,4-dihydroquinazoline-6-carboxamide] |
| 94.5% | CC(C)(C)OC(=O)NCCCn1ccc2ccc(C(=O)NO)cc2c1=O [Compound I-245, tert-butyl {3-[7-[(hydroxyamino)carbonyl]-1-oxoisoquinolin-2(1H)-yl]propyl}carbamate] |
| 94.6% | O=C(NO)c1ccc2ncn(CCc3cccc(-c4ccn[nH]4)c3)c(=O)c2c1 [Compound I-323, N-hydroxy-4-oxo-3-{2-[3-(1H-pyrazol-5-yl)phenyl]ethyl}-3,4-dihydroquinazoline-6-carboxamide] |

Same assay, conditions: compound concentration 0.412 μM, read-out: Percent Inhibition

| SMILES | inhibition at 0.412 µM |
| --- | --- |
| COc1ccc(CCCn2ccc3ccc(C(=O)NO)cc3c2=O)cc1 [Compound I-140, N-hydroxy-2-[3-(4-methoxyphenyl)propyl]-1-oxo-1,2-dihydroisoquinoline-7-carboxamide] | 96.5% |
| O=C(NO)c1ccc2ccn(CCCc3ccc(Cl)cc3)c(=O)c2c1 [Compound I-131, 2-[3-(4-chlorophenyl)propyl]-N-hydroxy-1-oxo-1,2-dihydroisoquinoline-7-carboxamide] | 96.9% |
| O=C(NO)c1ccc2ccn(Cc3cccc(OCc4ccccc4)c3)c(=O)c2c1 [Compound I-31, 2-[3-(benzyloxy)benzyl]-N-hydroxy-1-oxo-1,2-dihydroisoquinoline-7-carboxamide] | 89.5% |
| CC(C)n1ccc2ccc(C(=O)NO)cc2c1=O [Compound I-171, N-hydroxy-2-isopropyl-1-oxo-1,2-dihydroisoquinoline-7-carboxamide] | 87% |
| O=C(NO)c1ccc2[nH]c(=O)n(-c3ccccc3)c(=O)c2c1 [Compound I-123, N-hydroxy-2,4-dioxo-3-phenyl-1,2,3,4-tetrahydroquinazoline-6-carboxamide] | 71.7% |
| O=C(NO)c1ccc2ccn(CCCc3ccncc3)c(=O)c2c1 [Compound I-118, N-hydroxy-1-oxo-2-(3-pyridin-4-ylpropyl)-1,2-dihydroisoquinoline-7-carboxamide] | 93.3% |
| O=C(NO)c1ccc2ccn(CCc3c[nH]c4ccccc34)c(=O)c2c1 [Compound I-152, N-hydroxy-2-[2-(1H-indol-3-yl)ethyl]-1-oxo-1,2-dihydroisoquinoline-7-carboxamide] | 96% |
| COc1ccc2cc(OCCCn3ccc4ccc(C(=O)NO)cc4c3=O)ccc2c1 [Compound I-151, N-hydroxy-2-{3-[(6-methoxy-2-naphthyl)oxy]propyl}-1-oxo-1,2-dihydroisoquinoline-7-carboxamide] | 96.2% |
| O=C(NO)c1ccc2c(=O)n(CCc3ccccn3)c(C3CCCCC3)nc2c1 [Compound I-6, 2-cyclohexyl-N-hydroxy-4-oxo-3-(2-pyridin-2-ylethyl)-3,4-dihydroquinazoline-7-carboxamide] | 77.7% |
| Cn1c(NCc2ccncc2)nc2cc(C(=O)NO)ccc2c1=O [Compound I-47, N-hydroxy-3-methyl-4-oxo-2-[(pyridin-4-ylmethyl)amino]-3,4-dihydroquinazoline-7-carboxamide] | 44.2% |
| COc1ccccc1OCCn1ccc2ccc(C(=O)NO)cc2c1=O [Compound I-48, N-hydroxy-2-[2-(2-methoxyphenoxy)ethyl]-1-oxo-1,2-dihydroisoquinoline-7-carboxamide] | 97% |
| Cc1cccc(Cn2ccc3ccc(C(=O)NO)cc3c2=O)c1 [Compound I-120, N-hydroxy-2-(3-methylbenzyl)-1-oxo-1,2-dihydroisoquinoline-7-carboxamide] | 94.8% |

Now from value to molecule:

| inhibition at 0.412 µM | SMILES |
| --- | --- |
| 79.1% | O=C(NO)c1ccc2ncn(Cc3ccccn3)c(=O)c2c1 [Compound I-193, N-hydroxy-4-oxo-3-(pyridin-2-ylmethyl)-3,4-dihydroquinazoline-6-carboxamide] |
| 88.1% | CCOCCn1cnc2cc(C(=O)NO)ccc2c1=O [Compound I-276, 3-(2-ethoxyethyl)-N-hydroxy-4-oxo-3,4-dihydroquinazoline-7-carboxamide] |
| 94.6% | O=C(NO)c1ccc2ccn(Cc3ccc(F)cc3F)c(=O)c2c1 [Compound I-222, 2-(2,4-difluorobenzyl)-N-hydroxy-1-oxo-1,2-dihydroisoquinoline-7-carboxamide] |
| 29.8% | CC(C)(C)OC(=O)N1CCC(NC(=O)c2nc3cc(C(=O)NO)ccc3c(=O)[nH]2)CC1 [Compound I-241, tert-butyl 4-[({7-[(hydroxyamino)carbonyl]-4-oxo-3,4-dihydroquinazolin-2-yl}carbonyl)amino]piperidine-1-carboxylate] |
| 96.1% | COc1cc(Cn2ccc3ccc(C(=O)NO)cc3c2=O)cc(OC)c1 [Compound I-202, 2-(3,5-dimethoxybenzyl)-N-hydroxy-1-oxo-1,2-dihydroisoquinoline-7-carboxamide] |
| 81.3% | Cc1ccc(OCc2nc3cc(C(=O)NO)ccc3c(=O)[nH]2)cc1 [Compound I-265, N-hydroxy-2-[(4-methylphenoxy)methyl]-4-oxo-3,4-dihydroquinazoline-7-carboxamide] |
